Data published in patent US20250255850A1, “PHARMACEUTICAL COMPOSITIONS FOR TREATING NEUROLOGICAL CONDITIONS” (YISSUM RESEARCH DEVELOPMENT COMPANY OF THE HEBREW …, priority 2021, published 2025).
In brackets after ≈: the same amount, converted by molar mass.

What was measured:
SHANK3 knockout mice = assay: Novel object recognition test, SHANK3 knockout mice (M1); assay type: in vivo, mouse; conditions: 7-NI IP 80 mg/kg/day for 10 days
Procedure: (§1) Behavioral testing started after 2 hours of treatment.
(§2) Novel object recognition (see, FIG. 4A): The novel object test for object recognition and memory takes place in a white open field arena (45×45 cm). The test involves a set of two unique novel objects, each about the size of a mouse, constructed from two different materials and non-uniform in shape. The test consisted of one 10-minute habituation session, a 5-minute familiarization session and a 5-minute recognition test, each video tracked (Noldus Ethovision). During the habituation, animals were allowed to freely explore an empty open field. At the end of the session, they were shifted from the open field to a place in a temporary clean holding cage for about 2 minutes. Two identical objects were placed on the median line at 10 cm from each wall and the animal was returned to the open field and allowed to explore the objects for 5 minutes before being returned to its home cage. Next day, one familiar object and one novel object were placed in the open field to the location where the identical objects were placed during the familiarization session and the mouse was allowed to explore them for a 5-minute recognition test. […] Familiarization and recognition sessions were scored for total time spent investigating each object, the number of object interactions and the latency of the first object interaction. […]

CNTNAP2−/− mutant mice = assay: Three-chamber sociability test, CNTNAP2-/- mutant mice (M2); assay type: in vivo, mouse; conditions: 7-NI i.p. 80 mg/kg daily for 10 days, vs untreated M2
Procedure: as §1
Three-chambered sociability test (see, FIG. 4B): Sociability and preference for social novelty and social recognition were tested in a three-chambered apparatus. The subjected mouse was first placed in the central, neutral chamber and allowed to explore for 10 minutes with all the doors closed. Next, doors were opened and the mouse was allowed to freely explore the other two empty chambers (1 and 2) for an additional 10 minutes. Lack of side preference was confirmed during this habituation.
Two cylindrical wire cages were placed, one in chamber 1 and the other in chamber 2. For the sociability test, the test animal was introduced to the middle chamber and allowed to adjust for 5 minutes. Then, an unfamiliar mouse was introduced into a wire cage in one of the side-chambers, and the other side-chamber remained empty. The time spent by the test mouse exploring the wire cage with an unfamiliar mouse inside was recorded for 5 minutes.
In another set of tests, the potential effects of inhibiting NO on the cognitive functions was assayed on an additional mouse model of ASD-CNTNAP2−/− mutant mice. The mice were divided into three testing groups: WT mice, CNTNAP2−/− mutant mice (M2), and mutant mice that were administered with 7-NI (M2+7NI).

[1] = system: Mutant mice (CNTNAP2 and SHANK3 mouse models); assay: Novel object recognition test (NOR), 7-NI-treated mutant mice (Example 3); assay type: in vivo; conditions: 7-NI IP 80 mg/kg/day for 7 days; mutant mice vs vehicle
Procedure: as §1, §2

[2] = Solubility of 7-nitroindazole in PNL formulation of Table 1; assay type: physicochemical; conditions: PNL formulation of Table 1, clear liquid
From the text: Table 1 below presents an exemplary PNL formulation according to some embodiments of the present invention.
The formulation can be prepared by mixing the components at room or elevated temperature to form a clear liquid which 7-nitroindazole is soluble in at about 20% w/v.

neuronal NOS = neuronal NOS (Homo sapiens, UniProt P29475); conditions: Pharm Res., 2001, 18, 1607-1612; cited from earlier work
neuronal NOS, sequence (P29475 whole entry, species assumed): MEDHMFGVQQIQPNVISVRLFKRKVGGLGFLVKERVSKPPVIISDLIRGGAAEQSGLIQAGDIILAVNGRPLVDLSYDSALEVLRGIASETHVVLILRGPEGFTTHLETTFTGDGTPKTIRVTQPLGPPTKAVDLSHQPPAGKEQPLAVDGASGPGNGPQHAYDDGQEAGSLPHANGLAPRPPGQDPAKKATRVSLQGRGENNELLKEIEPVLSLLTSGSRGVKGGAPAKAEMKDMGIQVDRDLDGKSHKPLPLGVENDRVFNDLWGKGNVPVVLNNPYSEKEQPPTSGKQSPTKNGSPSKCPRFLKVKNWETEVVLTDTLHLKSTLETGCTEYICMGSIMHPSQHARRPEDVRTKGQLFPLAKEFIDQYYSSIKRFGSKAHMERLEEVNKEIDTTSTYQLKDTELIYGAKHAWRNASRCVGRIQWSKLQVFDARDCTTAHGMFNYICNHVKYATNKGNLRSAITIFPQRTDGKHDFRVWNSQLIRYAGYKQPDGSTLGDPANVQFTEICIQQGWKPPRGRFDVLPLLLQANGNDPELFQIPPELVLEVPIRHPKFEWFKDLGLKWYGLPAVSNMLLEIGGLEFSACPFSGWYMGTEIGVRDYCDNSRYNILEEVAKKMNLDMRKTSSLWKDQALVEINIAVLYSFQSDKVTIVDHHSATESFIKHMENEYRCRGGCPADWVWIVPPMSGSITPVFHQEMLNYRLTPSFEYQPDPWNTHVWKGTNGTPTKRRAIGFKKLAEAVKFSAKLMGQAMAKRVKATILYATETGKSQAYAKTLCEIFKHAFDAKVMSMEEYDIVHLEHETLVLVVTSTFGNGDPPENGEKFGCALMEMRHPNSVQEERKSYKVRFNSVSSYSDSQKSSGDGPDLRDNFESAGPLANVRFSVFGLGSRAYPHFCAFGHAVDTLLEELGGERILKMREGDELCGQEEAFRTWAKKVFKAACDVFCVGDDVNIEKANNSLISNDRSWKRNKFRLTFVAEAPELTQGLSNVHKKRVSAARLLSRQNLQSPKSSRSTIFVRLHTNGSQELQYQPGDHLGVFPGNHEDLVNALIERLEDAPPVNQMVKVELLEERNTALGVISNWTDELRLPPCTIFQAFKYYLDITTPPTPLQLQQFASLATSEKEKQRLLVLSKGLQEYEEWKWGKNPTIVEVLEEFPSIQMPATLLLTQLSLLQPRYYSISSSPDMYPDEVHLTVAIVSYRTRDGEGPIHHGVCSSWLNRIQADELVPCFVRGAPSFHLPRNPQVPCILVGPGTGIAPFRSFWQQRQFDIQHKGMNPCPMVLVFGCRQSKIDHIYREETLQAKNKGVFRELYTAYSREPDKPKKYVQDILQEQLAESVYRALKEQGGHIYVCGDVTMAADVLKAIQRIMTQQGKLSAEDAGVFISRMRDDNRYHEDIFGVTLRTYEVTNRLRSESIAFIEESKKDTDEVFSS

physchem = conditions: organic solvent or mixture
SH-SY5Y cells = assay: Clonogenic survival assay; assay type: cell-based, human; conditions: 7-NI 100 μM for 24 hours or siRNA-nNOS, 14 days
Procedure: Cells were seeded into 6-well plates at concentrations of 500/well or 1000/well in triplicates. After 24 hours, 7-NI was added (100 μM for 24 hours), or cells were transiently transfected with siRNA-nNOS, as described above, before changing to serum-containing medium. Cells were incubated for 14 days to form visible colonies. Colonies were stained with crystal violet, washed with PBS, air-dried, and imaged. The colonies were visualized using ImageJ software. Cell colonies of greater than 50 cells were identified and counted (Lopez-Rivera et al., 2014).

Compound: O=[N+]([O-])c1cccc2cn[nH]c12 [7-NI, 7-nitroindazole]
- preference for the novel object (NOR test) (SHANK3 knockout mice; SHANK3 knockout mice aged 6 weeks): exhibited a significant preference for the novel object over the familiar one
- memory (novel object recognition) in aged mice (SHANK3 knockout mice; SHANK3 knockout mice aged 10 months): restored
- time interacting with the stranger mouse (three-chamber sociability) (CNTNAP2−/− mutant mice): spent significantly prolonged time interacting with the stranger mouse
- preference for the novel object (NOR test) [1]: exhibited a significant preference for the novel object over the familiar object
- solubility in PNL formulation [2]: about 20 % w/v
- selectivity for neuronal NOS (neuronal NOS): 10 fold
- solubility (physchem): 32 mg/mL (≈ 196 mM)
- number of colonies (clonogenic survival) (SH-SY5Y cells): decrease in the number of colonies
